Patent publication US4272437A, “Antibacterial agents, and 4-thio azetidinone intermediates” (priority 1979, dated 1981)
In brackets after ≈: the same amount, converted by molar mass. Counter-ions that a name gives are not always drawn. Like-named read-outs stand apart in the source and are kept apart here.

Tests used:
[1] = tested on: Klebsiella species A20468; experiment: MIC, tube dilution, Klebsiella species A20468; format: cell-based; conditions: Klebsiella species (K. pneumoniae) A20468; overnight 37° C.; read-out: Minimum Inhibitory Concentration (M.I.C.)
Description: (§1) Representative compounds of the present invention were subjected to in vitro antibiotic screening against a variety of microorganisms.

[2] = tested on: Staph. aureus (Meth-Res) A-15097; experiment: MIC, tube dilution, Staphylococcus aureus A15097 (Meth-Res); format: cell-based; conditions: Staphylococcus aureus, overnight 37° C.
Description: as §1

Ps. aeruginosa A-21213 = experiment: MIC, tube dilution, Pseudomonas aeruginosa A21213; format: cell-based; conditions: overnight 37° C., read-out: Minimum Inhibitory Concentration (M.I.C.)
Description: as §1

Pr. morganii A-15153 = experiment: MIC, tube dilution, Proteus morganii A15153; format: cell-based; conditions: Morganella morganii, A15153, Proteus morganii A15153; overnight 37° C.; read-out: Minimum Inhibitory Concentration (M.I.C.)
Description: as §1

[3] = tested on: Staph. aureus A-9537 and 50% serum; experiment: MIC, tube dilution, Staph. aureus A9537 + 50% serum; format: cell-based, Staphylococcus aureus; conditions: Staphylococcus aureus, overnight 37° C., read-out: Minimum Inhibitory Concentration (M.I.C.)
Description: as §1

E. coli A-15119 = experiment: MIC, tube dilution, Escherichia coli A15119; format: cell-based; conditions: Escherichia coli, A15119, E. coli A15119; overnight 37° C.; read-out: Minimum Inhibitory Concentration (M.I.C.)
Description: as §1

Ser. marcescens A-20019 = experiment: MIC, tube dilution, Serratia marcescens A20019; format: cell-based; conditions: Serratia marcescens, A20019, Serratia marcescens A20019; overnight 37° C.; read-out: Minimum Inhibitory Concentration (M.I.C.)
Description: as §1

[4] = tested on: Staph. aureus (Pen-Res) A-9606; experiment: MIC, tube dilution, Staphylococcus aureus A9606 (Pen-Res); format: cell-based; conditions: Staphylococcus aureus, overnight 37° C.
Description: as §1

Str. faecalis A-20688 = experiment: MIC, tube dilution, Streptococcus faecalis A20688; format: cell-based; conditions: Enterococcus faecalis, A20688, Str. faecalis A20688; overnight 37° C.; read-out: Minimum Inhibitory Concentration (M.I.C.)
Description: as §1

Ent. cloacae A-9656 = experiment: MIC, tube dilution, Enterobacter cloacae A9656; format: cell-based; conditions: overnight 37° C., read-out: Minimum Inhibitory Concentration (M.I.C.)
Description: as §1

Ent. cloacae A-9659 = experiment: MIC, tube dilution, Enterobacter cloacae A9659; format: cell-based; conditions: Enterobacter cloacae, A9659, Enterobacter cloacae A9659; overnight 37° C.; read-out: Minimum Inhibitory Concentration (M.I.C.)
Description: as §1

Proteus rettgeri A21203 = experiment: MIC, tube dilution, Proteus rettgeri A21203; format: cell-based; conditions: Providencia rettgeri, overnight 37° C., read-out: Minimum Inhibitory Concentration (M.I.C.)
Description: as §1

Str. pneumoniae A-9585 = experiment: MIC, tube dilution, Streptococcus pneumoniae A9585; format: cell-based; conditions: Streptococcus pneumoniae, A9585, Str. pneumoniae A9585; overnight 37° C., Nutrient Broth; read-out: Minimum Inhibitory Concentration (M.I.C.)
Description: as §1

Str. pyogenes A-9604 = experiment: MIC, tube dilution, Streptococcus pyogenes A9604; format: cell-based; conditions: Streptococcus pyogenes, A9604, Str. pyogenes A9604; overnight 37° C., Nutrient Broth; read-out: Minimum Inhibitory Concentration (M.I.C.)
Description: as §1

Staph. aureus A-9537 = experiment: MIC, tube dilution, Staphylococcus aureus A9537; format: cell-based; conditions: Staphylococcus aureus, A9537, Staph. aureus A9537; overnight 37° C., Nutrient Broth; read-out: Minimum Inhibitory Concentration (M.I.C.)
Description: as §1

Pr. mirabilis A-9900 = experiment: MIC, tube dilution, Proteus mirabilis A9900; format: cell-based; conditions: Proteus mirabilis, A9900, Proteus mirabilis A9900; overnight 37° C.; read-out: Minimum Inhibitory Concentration (M.I.C.)
Description: as §1

Ps. aeruginosa A-9843A = experiment: MIC, tube dilution, Pseudomonas aeruginosa A9843A; format: cell-based; conditions: Pseudomonas aeruginosa, A9843A, read-out: Minimum Inhibitory Concentration (M.I.C.), Pseudomonas aeruginosa A9843A; overnight 37° C.
Description: as §1

E. coli A-20341-1 = experiment: MIC, tube dilution, Escherichia coli A20341-1; format: cell-based
Description: as §1

K. pneumoniae A-15130 = experiment: MIC, tube dilution, Klebsiella pneumoniae A15130; format: cell-based; conditions: Klebsiella pneumoniae, A15130, K. pneumoniae A15130; overnight 37° C.; read-out: Minimum Inhibitory Concentration (M.I.C.)
Description: as §1

Proteus vulgaris A21559 = experiment: MIC, tube dilution, Proteus vulgaris A21559; format: cell-based; conditions: Proteus vulgaris
Description: as §1

[5] = Staph. aureus A15097 (Meth-Res), read-out: Minimum Inhibitory Concentration (M.I.C.)
[6] = Pseudomonas aeruginosa, A21213, Pseudomonas aeruginosa A21213
[7] = Staph. aureus A9606 (Pen-Res), read-out: Minimum Inhibitory Concentration (M.I.C.)
[8] = Enterobacter cloacae, A9656, Enterobacter cloacae A9656
[9] = A21203, Proteus rettgeri A21203
[10] = Escherichia coli, A203411, E. coli A20341-1; overnight 37° C.; read-out: Minimum Inhibitory Concentration (M.I.C.)
[11] = A21559, Proteus vulgaris A21559, overnight 37° C., read-out: Minimum Inhibitory Concentration (M.I.C.)
[12] = Escherichia coli, A203411; E. coli A20341-1; overnight 37° C.; read-out: Minimum Inhibitory Concentration (M.I.C.)
[13] = A21559, read-out: Minimum Inhibitory Concentration (M.I.C.)

Compound | MIC [1] [µg/mL] | MIC [2, 5] [µg/mL] | MIC (Ps. aeruginosa A-21213; [6]) [µg/mL] | MIC (Pr. morganii A-15153) [µg/mL] | MIC [3] [µg/mL] | MIC (E. coli A-15119) [µg/mL] | MIC (Ser. marcescens A-20019) [µg/mL] | MIC [4, 7] [µg/mL] | MIC (Str. faecalis A-20688) [µg/mL] | MIC (Ent. cloacae A-9656; [8]) [µg/mL] | MIC (Ent. cloacae A-9659) [µg/mL] | MIC (Proteus rettgeri A21203; [9]) [µg/mL] | MIC (Str. pneumoniae A-9585) [µg/mL] | MIC (Str. pyogenes A-9604) [µg/mL] | MIC (Staph. aureus A-9537) [µg/mL] | MIC (Pr. mirabilis A-9900) [µg/mL] | MIC (Ps. aeruginosa A-9843A) [µg/mL] | MIC (E. coli A-20341-1; [10]) [µg/mL] | MIC (K. pneumoniae A-15130) [µg/mL] | MIC (Proteus vulgaris A21559; [11]) [µg/mL] | other results
COCOC[C@@H](O)[C@H]1C(=O)N2C(C(=O)O)=C(C)S[C@H]12 (relative stereo) [Example 106, (1'S,5R,6S and 1'R,5S,6R) 6-(1'-Hydroxy-2'-methoxymethoxy-2'-ethyl)-2-methylpenem-3-carboxylic acid (Isomer B)] | > 63 | > 63 | 63 (≈ 218 µM) | > 63 | > 32 | 63 (≈ 218 µM) | 63 (≈ 218 µM) | > 63 | > 63 | 63 (≈ 218 µM) | > 63 | 63 (≈ 218 µM) | 32 (≈ 111 µM) | 32 (≈ 111 µM) | 63 (≈ 218 µM) | 63 (≈ 218 µM) | 63 (≈ 218 µM) | 63 (≈ 218 µM) | > 63 | > 63 | –
CC(N)C1=C(C(=O)O)N2C(=O)CC2S1 (centres unmarked) [Example 72, 2-(1'-Aminoethyl)-penem-3-carboxylic Acid] | > 125 | 63 (≈ 294 µM) | – | > 125 | 63 | 125 (≈ 583 µM) | > 125 | 32 (≈ 149 µM) | > 125 | – | > 125 | – | 1 (≈ 4.67 µM) | 2 (≈ 9.34 µM) | 4 (≈ 18.7 µM) | 125 (≈ 583 µM) | > 125 | – | > 125 | – | MIC (Ps. aeruginosa A-21213; Pseudomonas aeruginosa A21213): > 125 µg/mL; MIC (Ent. cloacae A-9656; Enterobacter cloacae A9656): > 125 µg/mL; MIC (Proteus rettgeri A21203; Proteus rettgeri A21203): 125 µg/mL (≈ 583 µM); MIC (E. coli A-20341-1; [12]): > 125 µg/mL; MIC (Proteus vulgaris A21559; [13]): 125 µg/mL (≈ 583 µM)
NCc1ccc(CC2=C(C(=O)O)N3C(=O)CC3S2)cc1 (centres unmarked) [Example 85, 2-(p-Aminomethylbenzyl)penem-3-carboxylic Acid] | > 63 | > 63 | 63 (≈ 217 µM) | 4 (≈ 13.8 µM) | 1 | 4 (≈ 13.8 µM) | 4 (≈ 13.8 µM) | 16 (≈ 55.1 µM) | 16 (≈ 55.1 µM) | 8 (≈ 27.6 µM) | 8 (≈ 27.6 µM) | 4 (≈ 13.8 µM) | 0.06 (≈ 0.207 µM) | 0.06 (≈ 0.207 µM) | 0.06 (≈ 0.207 µM) | 4 (≈ 13.8 µM) | 8 (≈ 27.6 µM) | 63 (≈ 217 µM) | 32 (≈ 110 µM) | > 63 | –
CC[C@H](O)[C@H]1C(=O)N2C(C(=O)O)=C(C)S[C@H]12 (relative stereo) [Example 93, (1'S,5R,6S, and 1'R,5S,6R) 6-(1'--Hydroxy-1'-propyl)-2-methylpenem-3-carboxylic acid, sodium salt (isomer C)] | > 125 | – | – | > 125 | > 63 | > 125 | > 125 | – | > 125 | – | > 125 | – | > 125 | > 125 | > 125 | > 125 | > 125 | – | > 125 | – | MIC ([2]; read-out: Minimum Inhibitory Concentration (M.I.C.), Staph. aureus A15097 (Meth-Res)): > 125 µg/mL; MIC (Ps. aeruginosa A-21213; Pseudomonas aeruginosa A21213): > 125 µg/mL; MIC ([4]; read-out: Minimum Inhibitory Concentration (M.I.C.), Staph. aureus A9606 (Pen-Res)): > 125 µg/mL; MIC (Ent. cloacae A-9656; Enterobacter cloacae A9656): > 125 µg/mL; MIC (Proteus rettgeri A21203; Proteus rettgeri A21203): > 125 µg/mL; MIC (E. coli A-20341-1; [12]): > 125 µg/mL; MIC (Proteus vulgaris A21559; [13]): > 125 µg/mL
